The results in this text go back to ChEMBL document CHEMBL5653610, “The novel phosphodiesterase 10A inhibitor THPP-1 has antipsychotic-like effects in rat and improves cognition in rat and rhesus monkey” (Neuropharmacology, 2013).

In this experiment the test system is Rattus norvegicus. As to the kind of experiment: Antipsychotic activity in Wistar Hannover rat assessed as increase in recognition at 0.56 mg/kg, ip dosed 30 mins before identical objects by novel object recognition test. It counts as functional, organism-based.

Calls of active or inactive are those of the source. The calls are words filed in the database; no cut-off is given here.

Regarding `COc1cc2c(cc1OC)C(=O)C(CC1CCN(Cc3ccccc3)CC1)C2` (stereo unspecified), the outcome was Active.
